Columns and labels:
wild type K-Ras = target: T1, wild type K-Ras (Homo sapiens, UniProt P01116); test: Covalent modification of recombinant wild-type K-Ras by whole-protein mass spectrometry; type: binding; conditions: 24-h incubation, 100 μM compound, 23° C., pH 7.5
T1 construct: human K-Ras (wildtype, aa 1-169); 6xHis tag + TEV cleavage site (N, cleaved yes); made in house; host or cells: E. coli BL21(DE3)

[1] = tested on: cell lines with confirmed KRAS p.G12S mutations; test: Immunoblot in four cell lines with confirmed KRAS p.G12S mutations; type: cell-based; conditions: 10 μM, 2 h
Protocol: (§1) Cells were passed for at least two generations after cryorecovery before they were used for assays. All cell lines were tested mycoplasma negative using MycoAlert™ Mycoplasma Detection Kit (Lonza). When indicated, cells were treated with drugs at 40-60% confluency at a final DMSO concentration of 1%. At the end of treatment period, cells were placed on ice. Unless otherwise indicated, adherent cells were washed once with ice-cold PBS (1 mL), scraped with a spatula, and pelleted by centrifugation (500×g, 5 min). Suspension cells were pelleted by centrifugation (500×g, 5 min), washed with 1 mL ice-cold PBS, and pelleted again. Cells were lysed in RIPA buffer supplemented with protease and phosphatase inhibitors (cOmplete and phosSTOP, Roche) on ice for 10 min. For RBD pulldown experiments, cells were lysed in Co-IP Lysis Buffer in lieu of RIPA buffer. Lysates were clarified by high-speed centrifugation (19,000×g, 10 min). Concentrations of lysates were determined with protein BCA assay (Thermo Fisher) and adjusted to 2 mg/mL with additional RIPA buffer (or Co-IP Lysis Buffer). […]
(§2) Unless otherwise noted, SDS-PAGE was run with Novex 16% Bis-Tris gel (Invitrogen) in MES running buffer (Invitrogen) at 200 V for 60 min following the manufacturer's instructions. […] The membrane was washed three times with TBST (5 min each wash) and imaged on a Li-COR Odyssey fluorescence imager.

[2] = tested on: A375 cells (wild-type KRAS); test: Immunoblot in A375 cells; type: cell-based; conditions: 10 μM, 2 h
Protocol: as §1, §2

[3] = tested on: Ba/F3:K-Ras(G12S) cells (without IL-3); test: Cell viability assay (CellTiter-Glo), Ba/F3:K-Ras(G12S) cells; type: cell-based, murine
Protocol: Cells were seeded into 96-well white flat bottom plates (1,000 cells/well) (Corning) and incubated overnight. […] Cell viability was assessed using a commercial CellTiter-Glo (CTG) luminescence-based assay (Promega). Briefly, the 96-well plates were equilibrated to room temperature before the addition of diluted CTG reagent […] (1:4 CTG reagent:PBS). Plates were placed on an orbital shaker for 30 min before recording luminescence using a Spark 20M (Tecan) plate reader.

Ba/F3:K-Ras(G12S) cells = test: Phospho-ERK assay in Ba/F3:K-Ras(G12S) cells; type: cell-based, murine; conditions: 1 h treatment
Protocol: Ba/F3 parental cells were pelleted and resuspend in IL-3 supplemented growth medium (RPMI 1640, 10% heat-inactivated FBS, 10 ng/mL mouse IL-3 medium) to 1×10^7/mL. Ba/F3 K-Ras(G12S) transductant cells were pelleted and resuspended in IL-3 free growth medium (RPMI 1640, 10% heat-inactivated FBS) to 1×10^7/mL. 25 μL cells were added to each well of a 96-well plate (2.5×10^5 cells/well), followed by 5 μL 6× compound solutions (6% DMSO). The mixture was incubated at 37° C. for 1 h. Cell lysis and subsequent high-throughput phospho-ERK assay was performed using Cisbio Advanced phospho-ERK (Thr202/Tyr204) cellular kit (PerkinElmer 64AERPEG) following the manufacturer's instructions.

K-Ras G12D = target: T2, K-Ras G12D (Homo sapiens, UniProt P01116, G12D); test: Covalent modification of test protein after incubation with compound; type: binding; conditions: 24-h incubation with 100 μM compound at 23° C. at pH 7.5
T2 construct: human K-Ras (G12D, aa 1-169); 6xHis tag + TEV cleavage site (N, cleaved yes); made in house; host or cells: E. coli BL21(DE3)

K-Ras G12E = target: T3, K-Ras G12E (Homo sapiens, UniProt P01116, G12E); test: as above; type: binding; conditions: 24-h incubation with 100 μM compound at 23° C. at pH 7.5
T3 construct: human K-Ras (G12E, aa 1-169); 6xHis tag + TEV cleavage site (N, cleaved yes); made in house; host or cells: E. coli BL21(DE3)

% covalent modification of wild type K-Ras (wild type K-Ras): 0%
IC50 ([3]; Mus musculus, BaF3, no IL-3, 72 h, read-out: IC50, growth of K-Ras(G12S)-transduced Ba/F3 cells): 2400 nM
% covalent modification of K-Ras G12D (K-Ras G12D): 0%
% covalent modification of K-Ras G12E (K-Ras G12E): 0%
Compound: O=C1O[C@H]2CN(c3nc(OCC45CCCN4CCC5)nc4c(F)c(-c5cccc6cccc(Cl)c56)ncc34)CC[C@@H]12 [5′]
phospho-ERK level and K-Ras gel mobility [1]: reduction of phospho-ERK level and gel mobility shift of the K-Ras protein
signaling in A375 cells [2]: did not perturb the signaling
selectivity, Ba/F3:K-Ras(G12S) over parental Ba/F3 cells [3]: five-fold
phospho-ERK levels (Ba/F3:K-Ras(G12S) cells): dose-dependent reduction of phospho-ERK levels

— patent publication US20250059187A1, “COVALENTLY BINDING INHIBITORS OF G12S, G12D AND/OR G12E MUTANTS OF K-RAS GTPASE” (The Regents of the University of California, priority 2021, published 2025)
